For assay [1], the target named is T1, SNF-related serine/threonine-protein kinase (Homo sapiens) (UniProt Q9NRH2).
T1 sequence (whole entry): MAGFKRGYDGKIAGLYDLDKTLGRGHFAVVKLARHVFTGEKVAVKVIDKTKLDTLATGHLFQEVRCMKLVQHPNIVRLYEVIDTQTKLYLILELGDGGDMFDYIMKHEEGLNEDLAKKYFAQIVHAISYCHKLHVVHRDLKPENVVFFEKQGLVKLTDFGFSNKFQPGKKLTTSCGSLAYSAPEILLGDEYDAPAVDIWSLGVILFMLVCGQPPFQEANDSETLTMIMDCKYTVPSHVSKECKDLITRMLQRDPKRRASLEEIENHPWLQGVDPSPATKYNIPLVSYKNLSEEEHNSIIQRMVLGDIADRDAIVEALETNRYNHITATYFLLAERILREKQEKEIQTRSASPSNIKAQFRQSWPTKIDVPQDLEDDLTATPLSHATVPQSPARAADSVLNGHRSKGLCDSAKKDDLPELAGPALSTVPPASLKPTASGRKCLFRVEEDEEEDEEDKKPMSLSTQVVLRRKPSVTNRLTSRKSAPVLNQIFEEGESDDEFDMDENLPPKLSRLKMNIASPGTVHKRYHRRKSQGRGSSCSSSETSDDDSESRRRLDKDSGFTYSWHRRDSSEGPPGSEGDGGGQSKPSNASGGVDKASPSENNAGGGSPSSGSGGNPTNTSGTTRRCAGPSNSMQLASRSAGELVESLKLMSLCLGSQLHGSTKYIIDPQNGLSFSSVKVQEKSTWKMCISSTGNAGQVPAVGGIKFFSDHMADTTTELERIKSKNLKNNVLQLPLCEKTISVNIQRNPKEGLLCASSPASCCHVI
The assay can be described thus: Inhibition of human recombinant SNRK at 40 nM in presence of ATP by radiometric assay relative to control.

The species entered for assay [2] is Homo sapiens. The assay can be described thus: Inhibition of human recombinant KHS1 at 40 nM related to control ULK1.
The target of assay [3] is Serine/threonine-protein kinase MRCK beta (Homo sapiens) (UniProt Q9Y5S2). The assay can be described thus: Inhibition of human recombinant MRCKb at 40 nM in presence of ATP by radiometric assay relative to control.
Serine/threonine-protein kinase MRCK beta (Homo sapiens), sequence (Q9Y5S2 whole entry): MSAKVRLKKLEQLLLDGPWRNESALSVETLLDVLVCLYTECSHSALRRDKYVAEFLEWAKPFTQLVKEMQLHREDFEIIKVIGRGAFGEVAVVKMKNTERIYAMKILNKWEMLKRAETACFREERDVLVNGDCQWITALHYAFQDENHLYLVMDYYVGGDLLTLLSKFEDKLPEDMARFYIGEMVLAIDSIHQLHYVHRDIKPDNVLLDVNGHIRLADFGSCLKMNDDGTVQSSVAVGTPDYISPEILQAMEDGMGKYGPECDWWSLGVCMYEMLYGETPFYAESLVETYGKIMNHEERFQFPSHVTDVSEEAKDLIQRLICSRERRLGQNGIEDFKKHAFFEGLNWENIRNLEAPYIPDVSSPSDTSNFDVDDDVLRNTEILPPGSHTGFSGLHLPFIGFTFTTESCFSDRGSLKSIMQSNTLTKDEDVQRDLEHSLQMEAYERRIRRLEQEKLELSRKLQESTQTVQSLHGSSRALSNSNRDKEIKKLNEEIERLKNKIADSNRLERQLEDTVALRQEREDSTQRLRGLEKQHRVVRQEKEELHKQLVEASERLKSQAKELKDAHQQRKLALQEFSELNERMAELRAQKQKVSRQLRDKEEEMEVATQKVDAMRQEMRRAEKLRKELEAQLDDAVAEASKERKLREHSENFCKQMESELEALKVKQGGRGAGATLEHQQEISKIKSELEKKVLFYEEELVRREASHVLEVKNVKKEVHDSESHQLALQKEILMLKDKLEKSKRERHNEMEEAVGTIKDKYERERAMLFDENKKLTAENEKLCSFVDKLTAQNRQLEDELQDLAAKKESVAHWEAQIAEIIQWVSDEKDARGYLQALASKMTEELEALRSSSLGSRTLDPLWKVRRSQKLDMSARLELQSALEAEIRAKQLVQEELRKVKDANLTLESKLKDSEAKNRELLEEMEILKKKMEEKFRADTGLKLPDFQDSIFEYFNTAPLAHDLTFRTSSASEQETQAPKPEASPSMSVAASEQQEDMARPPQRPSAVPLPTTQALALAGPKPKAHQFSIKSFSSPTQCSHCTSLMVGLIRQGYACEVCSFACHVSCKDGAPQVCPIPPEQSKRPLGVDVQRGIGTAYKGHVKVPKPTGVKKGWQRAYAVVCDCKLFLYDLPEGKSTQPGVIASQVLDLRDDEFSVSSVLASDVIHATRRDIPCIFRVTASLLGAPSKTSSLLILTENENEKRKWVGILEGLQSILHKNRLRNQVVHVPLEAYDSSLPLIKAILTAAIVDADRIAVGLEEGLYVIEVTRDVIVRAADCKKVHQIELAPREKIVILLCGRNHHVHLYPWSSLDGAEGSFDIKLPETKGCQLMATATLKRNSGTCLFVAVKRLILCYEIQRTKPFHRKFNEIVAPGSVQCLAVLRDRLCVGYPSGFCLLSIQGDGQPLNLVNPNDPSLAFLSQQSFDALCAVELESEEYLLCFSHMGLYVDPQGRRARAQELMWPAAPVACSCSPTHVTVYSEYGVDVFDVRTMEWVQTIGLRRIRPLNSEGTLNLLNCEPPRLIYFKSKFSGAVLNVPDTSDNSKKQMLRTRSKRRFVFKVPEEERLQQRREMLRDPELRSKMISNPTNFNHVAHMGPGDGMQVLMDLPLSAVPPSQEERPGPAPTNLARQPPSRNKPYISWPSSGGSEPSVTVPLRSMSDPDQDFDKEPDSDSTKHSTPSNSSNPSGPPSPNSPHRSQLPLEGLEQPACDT
Assay [4] concerns the target T2, Receptor-interacting serine/threonine-protein kinase 1 (Homo sapiens) (UniProt Q13546).
T2 sequence (whole entry): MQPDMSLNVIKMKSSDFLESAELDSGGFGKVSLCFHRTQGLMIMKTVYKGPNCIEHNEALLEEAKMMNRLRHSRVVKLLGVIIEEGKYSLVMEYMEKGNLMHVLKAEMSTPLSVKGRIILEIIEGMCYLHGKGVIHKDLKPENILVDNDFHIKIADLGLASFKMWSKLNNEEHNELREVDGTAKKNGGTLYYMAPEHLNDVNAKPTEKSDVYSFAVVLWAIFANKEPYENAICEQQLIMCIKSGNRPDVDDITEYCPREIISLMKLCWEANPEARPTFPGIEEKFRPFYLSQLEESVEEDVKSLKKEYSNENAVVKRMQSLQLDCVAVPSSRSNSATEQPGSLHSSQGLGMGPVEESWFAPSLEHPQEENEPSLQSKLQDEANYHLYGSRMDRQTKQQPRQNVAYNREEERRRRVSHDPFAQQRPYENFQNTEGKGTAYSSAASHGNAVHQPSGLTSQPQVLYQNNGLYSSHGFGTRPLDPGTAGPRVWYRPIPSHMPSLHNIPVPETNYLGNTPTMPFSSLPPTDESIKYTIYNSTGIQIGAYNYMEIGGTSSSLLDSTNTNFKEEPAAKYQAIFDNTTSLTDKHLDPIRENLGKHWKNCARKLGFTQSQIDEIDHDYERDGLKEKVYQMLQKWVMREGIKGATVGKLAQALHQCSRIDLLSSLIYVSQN
The assay is described as follows: Inhibition of human recombinant RIPK1 at 500 nM in presence of ATP by radiometric assay relative to control.

In assay [5] the target is T3, Eukaryotic elongation factor 2 kinase (Homo sapiens) (UniProt O00418).
T3 sequence (whole entry): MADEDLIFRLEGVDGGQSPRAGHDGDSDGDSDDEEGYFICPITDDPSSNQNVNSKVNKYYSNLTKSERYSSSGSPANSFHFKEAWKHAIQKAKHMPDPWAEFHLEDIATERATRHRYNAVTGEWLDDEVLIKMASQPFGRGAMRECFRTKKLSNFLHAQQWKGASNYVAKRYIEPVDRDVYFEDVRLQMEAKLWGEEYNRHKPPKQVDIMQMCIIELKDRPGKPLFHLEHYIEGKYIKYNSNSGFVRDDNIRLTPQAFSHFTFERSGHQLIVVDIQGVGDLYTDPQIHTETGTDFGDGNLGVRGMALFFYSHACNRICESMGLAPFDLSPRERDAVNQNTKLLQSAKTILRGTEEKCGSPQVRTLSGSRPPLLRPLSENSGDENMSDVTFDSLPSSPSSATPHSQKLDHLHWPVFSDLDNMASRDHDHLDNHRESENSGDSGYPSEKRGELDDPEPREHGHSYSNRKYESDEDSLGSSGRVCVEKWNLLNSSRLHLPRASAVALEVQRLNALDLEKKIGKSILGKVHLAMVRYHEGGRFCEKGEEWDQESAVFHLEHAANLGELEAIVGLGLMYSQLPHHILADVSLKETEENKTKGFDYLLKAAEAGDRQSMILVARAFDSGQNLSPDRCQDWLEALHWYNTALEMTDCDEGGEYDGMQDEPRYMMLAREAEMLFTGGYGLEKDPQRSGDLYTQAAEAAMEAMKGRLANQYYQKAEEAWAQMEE
The assay can be described thus: Inhibition of human recombinant eEF2K at 500 nM in presence of ATP by radiometric assay relative to control.

Assay [6] deals with Serine/threonine-protein kinase Chk2 (Homo sapiens) (UniProt O96017). The assay can be described thus: Inhibition of human recombinant CHK2 at 15 nM in presence of ATP by radiometric assay relative to control.
Serine/threonine-protein kinase Chk2 (Homo sapiens), sequence (O96017 whole entry): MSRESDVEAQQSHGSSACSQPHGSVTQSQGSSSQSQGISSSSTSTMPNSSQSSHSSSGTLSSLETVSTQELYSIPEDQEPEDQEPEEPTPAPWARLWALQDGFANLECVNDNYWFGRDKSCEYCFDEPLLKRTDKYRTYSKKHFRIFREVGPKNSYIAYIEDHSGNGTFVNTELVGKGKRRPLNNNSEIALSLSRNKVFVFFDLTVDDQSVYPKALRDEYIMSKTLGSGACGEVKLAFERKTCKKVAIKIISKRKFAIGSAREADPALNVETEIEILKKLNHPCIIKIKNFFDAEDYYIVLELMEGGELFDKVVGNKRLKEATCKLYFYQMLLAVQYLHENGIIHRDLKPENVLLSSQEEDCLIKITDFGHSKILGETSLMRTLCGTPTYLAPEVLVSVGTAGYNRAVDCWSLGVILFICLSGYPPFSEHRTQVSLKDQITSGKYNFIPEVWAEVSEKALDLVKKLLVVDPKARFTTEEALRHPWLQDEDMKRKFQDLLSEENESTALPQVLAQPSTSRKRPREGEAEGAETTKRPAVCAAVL
Assay [7] has as its target Dual specificity tyrosine-phosphorylation-regulated kinase 1B (Homo sapiens) (UniProt Q9Y463). The assay can be described thus: Inhibition of human recombinant DYRK1B at 15 nM in presence of ATP by radiometric assay relative to control.

By inhibition is commonly meant the share of the control response that was lost under treatment.

Dual specificity tyrosine-phosphorylation-regulated kinase 1B (Homo sapiens), sequence (Q9Y463 whole entry, looked up): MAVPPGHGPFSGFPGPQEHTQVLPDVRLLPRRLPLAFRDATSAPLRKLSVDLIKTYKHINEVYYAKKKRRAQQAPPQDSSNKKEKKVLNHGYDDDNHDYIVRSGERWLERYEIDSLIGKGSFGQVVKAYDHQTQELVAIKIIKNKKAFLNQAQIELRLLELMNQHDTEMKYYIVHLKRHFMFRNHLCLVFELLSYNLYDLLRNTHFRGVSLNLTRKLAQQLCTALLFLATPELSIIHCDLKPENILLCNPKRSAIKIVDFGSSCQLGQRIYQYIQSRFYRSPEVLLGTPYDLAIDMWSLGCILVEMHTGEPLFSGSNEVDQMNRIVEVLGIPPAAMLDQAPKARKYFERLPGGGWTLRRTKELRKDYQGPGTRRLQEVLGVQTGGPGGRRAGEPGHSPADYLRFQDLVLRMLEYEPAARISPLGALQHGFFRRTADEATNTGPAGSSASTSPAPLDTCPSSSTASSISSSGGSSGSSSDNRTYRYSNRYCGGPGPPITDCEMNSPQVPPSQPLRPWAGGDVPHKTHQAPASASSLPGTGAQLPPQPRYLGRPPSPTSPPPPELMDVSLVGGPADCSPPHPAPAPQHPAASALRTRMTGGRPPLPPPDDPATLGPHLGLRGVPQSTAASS

Regarding `O=C(N[C@@H](C1CC1)C(F)(F)F)c1cc(-c2cnn3cc(-c4ccc(F)cc4)cnc23)cs1`, the inhibition in assay [1] worked out at 0%; in assay [3] it was 5%. In addition, the fold change (FC) in assay [2] amounted to 0.
As for `CNC(=O)c1ccccc1Oc1nc(Nc2cc(OC)c(OC)c(OC)c2)ncc1Br`, the inhibition in assay [4] came out at 7%; in assay [5] it was 14%.
Take `CC(C)[C@H](NC(=O)c1cc(-c2cnn3cc(-c4ccc(OCCN5CCCCC5)cc4)cnc23)cs1)C(F)(F)F`: the inhibition was found to be 0% in assay [6] and 65% in assay [7].

Source of the values: ChEMBL document CHEMBL5653631, “A Potent and Selective ULK1 Inhibitor Suppresses Autophagy and Sensitizes Cancer Cells to Nutrient Stress” (iScience, 2018).
